Experimental findings from patent publication US10111875B2, “Pyrrolopyrimidine compounds and uses thereof” (HUTCHISON MEDIPHARMA LIMITED, priority 2010, dated 2018) are described below.

One may read the inhibition as the share of the control response that was lost under treatment. As a reminder, the IC50 is the midpoint of a concentration-inhibition curve.

SMILES strings stand for the structures.

Assay [1] deals with Recombinant human JAK1 catalytic domain (Homo sapiens (Human), UniProt P23458). Kind of assay: JAK1 kinase assay (Z'-LYTE Tyr 6 Peptide). The class given is biochemical. The conditions noted are these: JAK1 kinase assay, 0.3 uM concentration; read-out: inhibition percentage (IR %). How it is done:
JAK1/2/3 kinase assay are performed in vitro using Kit-Tyr 6 Peptide (Invitrogen, Cat. No. PV4122). TYK2 kinase assay are performed in vitro using Z′-LYTE™ Kinase Assay Kit-Tyr 3 Peptide (Invitrogen, Cat. No. PV3192). […] All compounds are initially tested at 8 different concentrations (1 μM down to 0.0003 μM) using a 1:3 serial dilution scheme.

The subject of assay [2] is IL-6-induced STAT3 phosphorylation, HepG2 cells. Kind of assay: IL-6-induced STAT3 phosphorylation in HepG2 cells. The class given is cell-based, human. The conditions noted are these: Homo sapiens, IL-6 stimulation, read-out: pSTAT3 (IC50). How it is done:
For the determination of IL-6-induced STAT3 phosphorylation, HepG2 cells (SIBS) are seeded in 96 well plates at […] cells per well in Serum Free DMEM media overnight and incubated in the presence or absence of various concentrations of diluted compound for 30 min at 37° C., 5% CO2. Cells were stimulated by adding 10 ng/ml human recombinant IL-6 to each well for 15 minutes at 37° C., 5% CO2. Cells are then fixed in 2% paraformaldehyde for 45 minutes at room temperature and incubated in ice-cold methanol for 30 minutes. After washing in PBS, cells are incubated with rabbit anti-phospho-STAT3 (Y705) (Cell Signaling Technologies, 1:1000 in antibody dilution solution) primary antibody overnight at 4° C. Goat anti-rabbit IgG Alexa 488 (Invitrogen, 1:1,000 dilution in PBS) secondary antibody is added for 90 minutes prior to PBS washes. Cells are counted following incubation in a 7.5 uM propidium iodide, 100 μg/ml RNaseA, PBS solution for 60 minutes in the dark. Plates are read on an Acumen X3 instrument (TPP Labtech).
(§1) Percent inhibition is calculated using the following formula: Inhibition (%)=100−((inhibitor treatment−cell)/(stimulator−cell))×100
(§2) where: Inhibitor treatment represents cell activation percentage of wells treated by both compound and stimulator (IL-6, IL-3 or IL-4); Cell represents the cell activation percentage of wells treated by neither compound nor stimulator (IL-6, IL-3 or IL-4). Stimulator represents the cell activation percentage of wells treated by stimulator (IL-6, IL-3 or IL-4) only.

The test system of assay [3] is IL-3-induced STAT5 phosphorylation, TF-1 cells. Nature of the assay: IL-3-induced STAT5 phosphorylation in TF-1 cells. The class given is cell-based, human. Conditions: Homo sapiens, IL-3 stimulation, read-out: pSTAT5 (IC50). How it is done: For the determination of IL-3-induced STAT5 phosphorylation, TF-1 cells (ATCC) are plated in 96 well plates at 1×10^4 cells per well in 10% FBS RPMI-1640 media at 37° C., 5% CO2 for 3 hours. Cells were incubated in the presence or absence of various concentrations of diluted compound for 30 min at 37° C., 5% CO2. Cells were stimulated by adding 10 ng/ml human recombinant IL-3 to each well for 30 minutes at 37° C., 5% CO2. Cells are then fixed in 2% paraformaldehyde for 45 minutes at room temperature and incubated in ice-cold methanol for 30 minutes. After washing in PBS, cells are incubated with rabbit anti-phospho-STAT5 (Y694) (Cell Signaling Technologies, 1:1000 in antibody dilution solution) primary antibody overnight at 4° C. Goat anti-rabbit IgG Alexa 488 (Invitrogen, 1:1,000 dilution in PBS) secondary antibody is added for 90 minutes prior to PBS washes. Cells are counted following incubation in a 7.5 uM propidium iodide, 100 µg/ml RNaseA, PBS solution for 60 minutes in the dark. Plates are read on an Acumen X3 instrument (TPP Labtech).
as §1, §2

Assay [4] deals with IL-4-induced STAT6 phosphorylation, Ramos cells. Nature of the assay: IL-4-induced STAT6 phosphorylation in Ramos cells. The class given is cell-based. The conditions noted are these: Homo sapiens, IL-4 stimulation, read-out: pSTAT6 (IC50). How it is done: For the determination of IL-4-induced STAT6 phosphorylation, Ramos cells (ATCC) are plated in 96 well plates at 1.0×10^4 cells per well 10% FBS RPMI-1640 and incubated at 37° C., 5% CO2 for 3 hours. Cells were incubated with compounds for 30 minutes prior to stimulation with interleukin-4 (10 ng/ml final) for an additional 30 minutes. Cells are then fixed in 2% paraformaldehyde for 45 minutes and incubated in ice-cold methanol for 30 minutes. After washing in PBS, cells are incubated with rabbit anti-phospho-STAT6 (Y641) (Cell Signaling Technologies, 1:1000 in antibody dilution solution) primary antibody overnight at 4° C. Goat anti-rabbit IgG Alexa 488 (Invitrogen, 1:1,000 dilution in PBS) secondary antibody is added for 90 minutes prior to PBS washes. Cells are counted following incubation in a 7.5 uM propidium iodide, 100 µg/ml RNaseA, PBS solution for 60 minutes in the dark. Plates are read on an Acumen X3 instrument (TPP Labtech).
as §1, §2

Chain of Recombinant human JAK1 catalytic domain (P23458 875-1153): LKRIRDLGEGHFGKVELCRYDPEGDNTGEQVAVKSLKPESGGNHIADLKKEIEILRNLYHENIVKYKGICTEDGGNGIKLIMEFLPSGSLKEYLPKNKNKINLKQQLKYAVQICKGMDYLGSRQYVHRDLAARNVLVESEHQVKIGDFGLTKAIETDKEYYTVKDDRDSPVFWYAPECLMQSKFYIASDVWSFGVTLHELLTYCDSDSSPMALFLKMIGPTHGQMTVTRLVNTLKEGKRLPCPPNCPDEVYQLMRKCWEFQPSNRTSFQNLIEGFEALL

On to `CN(c1ccc(C(=O)N[C@@H]2c3ccccc3C[C@H]2O)cc1F)[C@@H]1CCN(c2ncnc3[nH]ccc23)C1` [Compound 206], for which the inhibition at 0.3 µM in assay [1] lay in the range of 50 to 100%. The IC50 worked out at 23.9 nM in assay [2], 693 nM in assay [3] and 180 nM in assay [4].
For the compound `CN(c1ccc(S(N)(=O)=O)cn1)[C@@H]1CCN(c2ncnc3[nH]ccc23)C1` [Compound 234], the inhibition at 0.3 µM in assay [1] fell in the range of 50 to 100%. Further, the values for the IC50 in assay [2], in assay [3] and in assay [4] were 337 nM, 857 nM and 385 nM, respectively.
